Assays:
[1] = test system: KAI3; assay: drug sensitivity score (viability inhibition); higher = more sensitive; details: 72 h; IL2 2.5 ng/ml
Method: (§1)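 NK-cell leukemia/lymphoma cell lines (3,000 cells/well) were cultured with IL2 2.5 ng/ml in 384-well drug plates (5-8 concentrations over a 10,000-fold range) for 72 h at 37 C; viability was read with CellTiter-Glo. DSS is a normalised area under the dose-response curve; the experiment was repeated twice.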

[2] = test system: KHYG-1; assay: as above; details: 72 h; IL2 2.5 ng/ml
Method: as §1

[3] = test system: NK-92; assay: as above; details: 72 h; IL2 2.5 ng/ml
Method: as §1

[4] = test system: NK-YS; assay: as above; details: 72 h; IL2 2.5 ng/ml
Method: as §1

[5] = test system: NKL; assay: as above; details: 72 h; IL2 2.5 ng/ml
Method: as §1

[6] = test system: SNK6; assay: as above; details: 72 h; IL2 2.5 ng/ml
Method: as §1

[7] = test system: YT; assay: as above; details: 72 h; IL2 2.5 ng/ml
Method: as §1

[8] = test system: HEK293-SIE STAT3 WT; assay: drug sensitivity score (inhibition of STAT3 luciferase reporter); higher = stronger inhibition; details: 6 h; STAT3: WT; IL6 100 ng/ml
Method: (§2)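 HEK293 cells with a STAT3-inducible (SIE) luciferase reporter, stably expressing WT STAT3 (IL6 100 ng/ml) or Y640F STAT3 (no IL6), were incubated 6 h with drugs in 384-well plates (5-8 concentrations over a 10,000-fold range); luciferase was read with ONE-Glo. DSS is a normalised area under the dose-response curve; values are the mean of two experiments.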

[9] = test system: HEK293-SIE STAT3 Y640F; assay: as above; details: 6 h; IL6 0 ng/ml
Method: as §2

Structure (SMILES)	drug sensitivity score [1] [DSS]	drug sensitivity score [2] [DSS]	drug sensitivity score [3] [DSS]	drug sensitivity score [4] [DSS]	drug sensitivity score [5] [DSS]	drug sensitivity score [6] [DSS]	drug sensitivity score [7] [DSS]	drug sensitivity score [8] [DSS]	drug sensitivity score [9] [DSS]
COc1ccc(-c2cc3c(C)nc(N)nc3n([C@H]3CC[C@H](OCCO)CC3)c2=O)cn1	9.49	13.9	19.2	15	15.4	5.96	16.1	14.9	9.1
C[C@@]1(C(=O)Nc2ccc(F)nc2)CCCN1c1nc(Nc2cc(C3CC3)n[nH]2)c2cccn2n1	4.45	7.86	5.6	11.1	2.75	10.9	5.74	1.95	8.23
Cc1sc2c(c1C)C(c1ccc(Cl)cc1)=N[C@@H](CC(=O)OC(C)(C)C)c1nnc(C)n1-2 [(+)-JQ1]	4.93	18.9	3.16	15.9	13.7	12.4	11.1	16.6	0
N#C/C(=C\c1ccc(O)c(O)c1)C(=O)NCc1ccccc1 [AG490]	8.31	8.13	9.21	13.3	10.3	10.2	8.84	1.18	1.9
Cc1cc(Nc2nc(N[C@@H](C)c3ncc(F)cn3)ncc2Cl)[nH]n1 [AZD1480]	17.4	18.3	7.65	10.7	13.7	12.1	6.65	17.9	8.77
COc1ccc(-c2ccc3c(N4CCOC[C@@H]4C)nc(N4CCOC[C@@H]4C)nc3n2)cc1CO [AZD8055]	14.1	16.7	16.3	19.6	23.3	14.9	16.7	20.2	18.6
CN1CC[C@H](c2c(O)cc(O)c3c(=O)cc(-c4ccccc4Cl)oc23)[C@H](O)C1 [Alvocidib]	24.1	21.8	22.6	22.5	21.4	13.2	23	29.5	26.5
CC(=O)OC[C@H]1O[C@@H]([S-])[C@H](OC(C)=O)[C@@H](OC(C)=O)[C@@H]1OC(C)=O.CCP(CC)CC.[Au+] [Auranofin]	2.72	5.84	4.86	8.08	8.44	8.28	8.63	5.9	2.05
CNC(=O)c1ccccc1Sc1ccc2c(/C=C/c3ccccn3)n[nH]c2c1 [Axitinib]	10.9	10.9	6.72	10.2	8.05	8.94	8.91	0	0
COc1c(C)cnc(Cn2cnc3c(Cl)nc(N)nc32)c1C [BIIB021]	26	26.4	23	24.7	21.9	25.4	22.2	15.3	9.85
COc1cc(Nc2c(C#N)cnc3cc(OCCCN4CCN(C)CC4)c(OC)cc23)c(Cl)cc1Cl [Bosutinib]	6.47	7.49	7.49	5.25	5.37	5.08	5.38	0.775	8.4
CCN(CC)CCOc1ccc(C(=C(Cl)c2ccccc2)c2ccccc2)cc1 [Clomifene]	5.61	5.07	5.49	2.67	4.4	5.13	4.23	1.9	0
CC1(COc2ccc3c(c2)ncn3-c2ccc3cccc(N4CCC(N)CC4)c3n2)COC1 [Crenolanib]	5.4	7.73	9.79	7.55	10.3	9.96	7.98	3.05	4.25
O=P1(N(CCCl)CCCl)NCCCO1 (configuration not stated) [Cyclophosphamide]	1.89	0	0	0.435	0	0.54	0	2.6	1.17
Cc1c2oc3c(C)ccc(C(=O)N[C@@H]4C(=O)N[C@H](C(C)C)C(=O)N5CCC[C@H]5C(=O)N(C)CC(=O)N(C)[C@@H](C(C)C)C(=O)O[C@@H]4C)c3nc-2c(C(=O)N[C@@H]2C(=O)N[C@H](C(C)C)C(=O)N3CCC[C@H]3C(=O)N(C)CC(=O)N(C)[C@@H](C(C)C)C(=O)O[C@@H]2C)c(N)c1=O [Dactinomycin]	23.8	29.3	16.5	38.2	36.5	32.2	35	18.9	18.4
Cn1c(=O)n(-c2ccc(C(C)(C)C#N)cc2)c2c3cc(-c4cnc5ccccc5c4)ccc3ncc21 [Dactolisib]	10.3	14	12	15.8	18.2	8.33	13.4	15.1	12.8
CO[C@@H](C(=O)N1Cc2[nH]nc(NC(=O)c3ccc(N4CCN(C)CC4)cc3)c2C1)c1ccccc1 [Danusertib]	7.82	13	6.91	12.9	5.43	14.4	6.55	6.8	5.2
C[C@@H]1C[C@H]2[C@@H]3CCC4=CC(=O)C=C[C@]4(C)[C@@]3(F)[C@@H](O)C[C@]2(C)[C@@]1(O)C(=O)CO [Dexamethasone]	1.14	15.6	0	3.83	24.6	0	9.73	1.8	2.6
CO[C@H]1C[C@@H]2CC[C@@H](C)[C@@](O)(O2)C(=O)C(=O)N2CCCC[C@H]2C(=O)O[C@H]([C@H](C)C[C@@H]2CC[C@@H](OCCO)[C@H](OC)C2)CC(=O)[C@H](C)/C=C(\C)[C@@H](O)[C@@H](OC)C(=O)[C@H](C)C[C@H](C)/C=C/C=C/C=C/1C [Everolimus]	6.6	5.9	1.19	16.8	17.4	12.2	11.8	3.15	8.9
O=S(=O)(c1cccc2cnccc12)N1CCCNCC1 [Fasudil]	2.61	1.2	2.52	0.1	0.632	0.11	1.44	1.9	0
Cc1cc(Nc2cc(CN3CCOCC3)c3nc(C)c(Cc4ccc(Cl)cc4F)n3n2)n[nH]1 [Gandotinib]	–	–	–	–	–	–	–	24	8.4
